Data from patent publication US20240150293A1, “SPIROCYCLOHEXANE DERIVATIVES, PHARMACEUTICAL COMPOSITIONS CONTAINING THEM AND THEIR USES AS ANTI-APOPTOTIC INHIBITORS” (LES LABORATOIRES SERVIER, priority 2021, published 2024).
Read-outs that look alike come from different tables or passages of the source. Each block holds one compound with its values, some of them ahead of it.

Molecular target: Cy5-labelled Mcl1 (amino acids 171-321) C286S protein (UniProtKB Q07820) (Homo sapiens (Human), UniProt Q07820, C286S)
Sequence (Q07820 171-321 C286S): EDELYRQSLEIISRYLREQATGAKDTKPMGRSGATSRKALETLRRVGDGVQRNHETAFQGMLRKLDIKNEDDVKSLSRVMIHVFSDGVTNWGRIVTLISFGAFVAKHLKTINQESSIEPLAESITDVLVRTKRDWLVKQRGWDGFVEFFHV
Assay: Inhibition of Mcl-1 by the fluorescence quenching assay (Example A, Method B)
Format: binding
Text: Fluorescence quenching assay measures the change fluorescence intensity of C-terminally Cy5-labelled Mcl1 (amino acids 171-321) C286S protein (UniProtKB® primary accession number Q07820) having an amino acid sequence:
which is linked at the C-terminus to the amino acid X which corresponds to a cysteine labelled on the sulfur with sulpho-Cyanine5 from Lumiprobe GmbH catalogue number 13380, upon binding of a C-terminally labelled peptide derived from PUMA (UniProtKB® primary accession number Q9BXH1) having an amino acid sequence:
which is linked at the C-terminus to the amino acid X′, where X′ is cysteine labelled on the sulfur with TQ5WS from AAT Bioquest catalogue number 2079.
The addition of a compound which binds competitively to the same site as the peptide will result in an increase in the fluorescence intensity of the protein due to displacement of the fluorescence quencher.
An 11-point serial dilution of each compound was prepared in DMSO, the final buffer conditions were 10 mM 4-(2-hydroxyethyl)-1-piperazineethanesulfonic acid [HEPES], 150 mM NaCl, 0.05% Tween 20, pH 7.4 and 5% DMSO. The final protein concentration in the assay was 1 nM with the peptide present at 10, 20 or 400 nM. The experiments were incubated for 2 hours at room temperature before fluorescence intensity was measured on a Biotek SynergyNeo plate reader (Excitation 620 nm, emission 680 nm). The dose response curves were plotted with XL-Fit software using a 4-Parameter Logistic Model (Sigmoidal DoseResponse Model) and the inhibitory concentrations that gave a 50% increase in fluorescence intensity was determined (IC50). The Ki values were determined from the IC50 values according to Cer et al, Nucleic Acids Res, 2009, 37 (WebServer issue): W441-W445. Inhibition constants (Ki) are determined from complete binding inhibition curves (cKi) or from estimated from incomplete binding inhibition curves (eKi) in most cases due to low activity.

Compound: CC(C)(C)OC(=O)N1CCC(CC2=Cc3ccccc3[C@]23CC[C@@](Nc2cccc(Cl)c2)(C(=O)O)CC3)CC1 [Example 558, (1r,4r)-2′-{[1-(tert-butoxycarbonyl)piperidin-4-yl]methyl}-4-(3-chloroanilino)spiro[cyclohexane-1,1′-indene]-4-carboxylic acid]
Ki: 549 nM

Compound: O=C(O)[C@]1(Nc2cccc(Cl)c2)CC[C@]2(CC1)C(CCOc1ccnc3ccsc13)=Cc1ccccc12 [Example 178, (1r,4r)-4-(3-chloroanilino)-2′-{2-[(thieno[3,2-b]pyridin-7-yl)oxy]ethyl}spiro[cyclohexane-1,1′-indene]-4-carboxylic acid]
Ki (Ki determined from IC50): 37.1 nM

Compound: C[C@@H](CNc1ccncc1)C[C@@H]1Cc2ccccc2[C@]12CC[C@@](Nc1cccc(Cl)c1)(C(=O)O)CC2 [Example 574, (1r,2′R,4R)-4-(3-chloroanilino)-2′-{(2R)-2-methyl-3-[(pyridin-4-yl)amino]propyl}-2′,3′-dihydrospiro[cyclohexane-1,1′-indene]-4-carboxylic acid]
Ki: 221 nM

Compound: Cc1cc2c(cc1C)[C@]1(CC[C@@](Nc3cccc(Cl)c3)(C(=O)O)CC1)C(Br)=C2 [Example 140, (1s,4s)-2′-bromo-4-(3-chloroanilino)-5′,6′-dimethylspiro[cyclohexane-1,1′-indene]-4-carboxylic acid]
Ki (Ki determined from IC50): 57.4 nM

Compound: Cc1ccc2[nH]ccc2c1OCCC[C@@H]1Cc2ccccc2[C@]12CC[C@@](Nc1cccc(Cl)c1)(C(=O)O)CC2 [Example 489, (1r,2′R,4R)-4-(3-chloroanilino)-2′-{3-[(5-methyl-1H-indol-4-yl)oxy]propyl}-2′,3′-dihydrospiro[cyclohexane-1,1′-indene]-4-carboxylic acid]
Ki: 76 nM

Compound: CC[C@@H](COc1ccnc2ccsc12)C[C@H]1Cc2ccccc2[C@]12CC[C@@](Nc1cccc(Cl)c1)(C(=O)O)CC2 [Example 538, (1r,2′S,4S)-4-(3-chloroanilino)-2′-[(2R)-2-{[(thieno[3,2-b]pyridin-7-yl)oxy]methyl}butyl]-2′,3′-dihydrospiro[cyclohexane-1,1′-indene]-4-carboxylic acid]
Ki: 9.15 nM

Compound: CC(CC1Cc2ccccc2[C@]12CC[C@@](Nc1cccc(Cl)c1)(C(=O)O)CC2)C(C)Oc1ccnc2c1CCC2 (single isomer, unassigned) [Example 615, (1r,4r)-4-(3-chloroanilino)-2′-{3-[(6,7-dihydro-5H-cyclopenta[b]pyridin-4-yl)oxy]-2-methylbutyl}-2′,3′-dihydrospiro[cyclohexane-1,1′-indene]-4-carboxylic acid]
Ki: 241 nM

Compound: O=C(O)[C@]1(Nc2cccc(Cl)c2)CC[C@@]2(CC1)c1ccccc1C[C@@H]2CCCOc1cccc2[nH]ccc12 [Example 486, (1r,2′S,4S)-4-(3-chloroanilino)-2′-{3-[(1H-indol-4-yl)oxy]propyl}-2′,3′-dihydrospiro[cyclohexane-1,1′-indene]-4-carboxylic acid]
Ki: 82 nM

Compound: CC[C@@H](COc1ccnc2ccsc12)C[C@@H]1Cc2ccccc2[C@]12CC[C@@](Nc1cccc(Cl)c1)(C(=O)O)CC2 [Example 539, (1r,2′R,4R)-4-(3-chloroanilino)-2′-[(2R)-2-{[(thieno[3,2-b]pyridin-7-yl)oxy]methyl}butyl]-2′,3′-dihydrospiro[cyclohexane-1,1′-indene]-4-carboxylic acid]
Ki: 25.4 nM

Compound: O=C(O)[C@]1(Nc2cccc(Cl)c2)CC[C@]2(CC1)C(CCc1ccccc1)=Cc1ccccc12 [Example 200, (1r,4r)-4-(3-chloroanilino)-2′-(2-phenylethyl)spiro[cyclohexane-1,1′-indene]-4-carboxylic acid]
Ki (Ki determined from IC50): 139 nM

Compound: C[C@@H](COc1cccc2[nH]ccc12)CN1Cc2ccccc2[C@]12CC[C@@](Nc1cccc(Cl)c1)(C(=O)O)CC2 [Example 39, (1s,4S)-4-(3-chloroanilino)-2′-{(2R)-3-[(1H-indol-4-yl)oxy]-2-methylpropyl}-2′,3′-dihydrospiro[cyclohexane-1,1′-isoindole]-4-carboxylic acid]
Ki (Ki determined from IC50): 44.9 nM

Compound: CC[C@H](COc1ccncc1)C[C@@H]1Cc2ccccc2[C@]12CC[C@@](Nc1cccc(Cl)c1)(C(=O)O)CC2 [Example 543, (1r,2′R,4R)-4-(3-chloroanilino)-2′-[(2S)-2-{[(pyridin-4-yl)oxy]methyl}butyl]-2′,3′-dihydrospiro[cyclohexane-1,1′-indene]-4-carboxylic acid]
Ki: 126 nM

Compound: Cc1ccc2[nH]ccc2c1OCCC[C@H]1Cc2ccccc2[C@]12CC[C@@](Nc1cccc(Cl)c1)(C(=O)O)CC2 [Example 490, (1r,2′S,4S)-4-(3-chloroanilino)-2′-{3-[(5-methyl-1H-indol-4-yl)oxy]propyl}-2′,3′-dihydrospiro[cyclohexane-1,1′-indene]-4-carboxylic acid]
Ki: 61.8 nM

Compound: CCc1cnccc1OC[C@H](C)C[C@H]1Cc2ccccc2[C@]12CC[C@@](Nc1cccc(Cl)c1)(C(=O)O)CC2 [Example 588, (1r,2′S,4S)-4-(3-chloroanilino)-2′-{(2R)-3-[(3-ethylpyridin-4-yl)oxy]-2-methylpropyl}-2′,3′-dihydrospiro[cyclohexane-1,1′-indene]-4-carboxylic acid]
Ki: 2.68 nM

Compound: Cc1cccc(N[C@]2(C(=O)O)CC[C@@]3(CC2)C(Br)=Cc2ccccc23)c1 [Example 88, (1s,4s)-2′-bromo-4-(3-methylanilino)spiro[cyclohexane-1,1′-indene]-4-carboxylic acid]
Ki (Ki determined from IC50): 503 nM

Compound: O=C(O)[C@]1(Nc2cccc(Cl)c2)CC[C@@]2(CC1)c1ccccc1CC2CC(COCCN1CCOCC1)COc1ccnc2c1CCC2 (mixture of isomers) [Example 496, (1r,4r)-4-(3-chloroanilino)-2′-(2-{[(6,7-dihydro-5H-cyclopenta[b]pyridin-4-yl)oxy]methyl}-3-[2-(morpholin-4-yl)ethoxy]propyl)-2′,3′-dihydrospiro[cyclohexane-1,1′-indene]-4-carboxylic acid]
Ki: 1.8 nM

The next lines start with the values.

Ki: 0.469 nM
Compound: CC(C)COc1cc2c(cc1Cl)C[C@H](C[C@@H](C)COc1ccnc3c1[C@H](C)CCC3)[C@]21CC[C@](Nc2cccc(Cl)c2)(C(=O)O)CC1 [Example 820, (1r,2′S,4S)-5′-chloro-4-(3-chloroanilino)-2′-[(2R)-2-methyl-3-{[(5R)-5-methyl-5,6,7,8-tetrahydroquinolin-4-yl]oxy}propyl]-6′-(2-methylpropoxy)-2′,3′-dihydrospiro[cyclohexane-1,1′-indene]-4-carboxylic acid]

Ki: 2.8 nM
Compound: CC1CCN(C)c2nccc(OC[C@H](C)C[C@H]3Cc4ccccc4[C@]34CC[C@@](Nc3cccc(Cl)c3)(C(=O)O)CC4)c21 (single isomer, unassigned) [Example 644]

Ki: 65.3 nM
Compound: Cc1cc(C(C)O)cc2c1CC(C[C@@H](C)COc1ccnc3c1[C@H](C)CCC3)[C@]21CC[C@](Nc2cccc(Cl)c2)(C(=O)O)CC1 (stereo partly drawn) [Example 761, (1r,4R)-4-(3-chloroanilino)-6′-(1-hydroxyethyl)-4′-methyl-2′-[(2R)-2-methyl-3-{[(5R)-5-methyl-5,6,7,8-tetrahydroquinolin-4-yl]oxy}propyl]-2′,3′-dihydrospiro[cyclohexane-1,1′-indene]-4-carboxylic acid]

Ki: 6.36 nM
Compound: Cc1cnc2c(c1OC[C@H](C)C[C@H]1Cc3ccccc3[C@]13CC[C@@](Nc1cccc(Cl)c1)(C(=O)O)CC3)CCCC2 [Example 649, (1r,2′S,4S)-4-(3-chloroanilino)-2′-{(2R)-2-methyl-3-[(3-methyl-5,6,7,8-tetrahydroquinolin-4-yl)oxy]propyl}-2′,3′-dihydrospiro[cyclohexane-1,1′-indene]-4-carboxylic acid]

Ki: 42.6 nM
Compound: C[C@@H](COc1ccnc2c1CCC2(C)O)C[C@H]1Cc2ccccc2[C@]12CC[C@@](Nc1cccc(Cl)c1)(C(=O)O)CC2 (stereo partly drawn) [Example 618, (1r,2′S,4S)-4-(3-chloroanilino)-2′-{(2R)-3-[(7-hydroxy-7-methyl-6,7-dihydro-5H-cyclopenta[b]pyridin-4-yl)oxy]-2-methylpropyl}-2′,3′-dihydrospiro[cyclohexane-1,1′-indene]-4-carboxylic acid]

Ki: 93.5 nM
Compound: CC(CC1Cc2ccccc2[C@]12CC[C@@](Nc1cccc(Cl)c1)(C(=O)O)CC2)C(C)Oc1ccnc2c1CCC2 (single isomer, unassigned) [Example 617, (1r,4r)-4-(3-chloroanilino)-2′-{3-[(6,7-dihydro-5H-cyclopenta[b]pyridin-4-yl)oxy]-2-methylbutyl}-2′,3′-dihydrospiro[cyclohexane-1,1′-indene]-4-carboxylic acid]

Ki: 55.6 nM
Compound: C[C@@H](COc1ccnc2c1[C@H](C)CCC2)C[C@H]1Cc2cc3c(cc2[C@]12CC[C@@](Nc1cccc(Cl)c1)(C(=O)OCCCS(=O)(=O)O)CC2)OCO3 [Example 953, 3-({(1r,4S,6′S)-4-(3-chloroanilino)-6′-[(2R)-2-methyl-3-{[(5R)-5-methyl-5,6,7,8-tetrahydroquinolin-4-yl]oxy}propyl]-6′,7′-dihydro-2′H-spiro[cyclohexane-1,5′-indeno[5,6-d][1,3]dioxole]-4-carbonyl}oxy)propane-1-sulfonic acid]
